Entries after “also recorded” stand apart in the source; their conditions may differ.
Columns and labels:
Tor-His3 reporter = experiment: Western assay of reporter degradation in liquid culture after cycloheximide (in vivo); assay type: cell-based, S. cerevisiae; conditions: PS-341 200 μM; Δpdr5 strains Pre10-FPR1 and Rpn10-FPR1
Description: The aforementioned growth assay was a convenient tool for isolating strains to further explore DTL. […] To address this point, degradation of the reporters was directly measured. Strains Pre10-FPR1 and Rpn10-FPR1 were singly transformed with plasmids that expressed hemagglutinin (HA) epitope-tagged versions of Tor-His3 and TorS1972R-His3. The transformants were grown in liquid culture to early log phase, whereupon cycloheximide was added to halt protein translation. Each culture was then split in two and rapamycin was added to one. Samples were collected at various times and whole-cell protein extracts were generated and used for Western analysis (FIGS. 4A-4H). […] These experiments confirm that the growth deficient phenotype seen on histidine-dropout media was due to the degradation of the Tor-His3 reporter and that the 26S proteasome is necessary for this to occur.
In both assays, rapamycin was added to a final concentration of 1 μM, cycloheximide was added to a final concentration of 30 ng/ml and PS-341 was added to a final concentration of 200 μM. For liquid cultures, samples were extracted at fixed time intervals (0, 30, 60, 90 minutes) and whole cell extracts were made. 25 μg of total protein was used from each sample, resolved by SDS-PAGE and transferred to PVDF membranes. […]

[1] = tested on: T1, Tor-His3 with purified 26S proteasomes from strain Rpn10-FPR1; experiment: In vitro degradation assay with purified 26S proteasomes and purified reporter; assay type: biochemical, S. cerevisiae; conditions: PS-341 100 μM, rapamycin 1 μM
T1 construct: made in house; host or cells: reporter: E. coli DH5αPRO (PROTet.133 vector)
Source text: Whole, functional 26S proteasomes have been previously affinity-purified for use in biochemical assays (Leggett et al. (2002) Mol. Cell 10:495). The same procedure was used to isolate proteasomes from strain Rpn10-FPR1. HA epitope-tagged versions of Tor-His3 and TorS1972R-His3 were purified from a bacterial expression system and then mixed with the proteasomes, with or without rapamycin. Samples were extracted at regular intervals and reporter degradation was monitored by Western analysis (FIG. 5A). […] Once again, proteolysis of Tor-His3 could be halted upon the addition of the proteasome inhibitor PS-341.
26S proteasomes were affinity purified from strains Pre10-FPR1 and Rpn10 FPR1 using the Rpn11-TEV-ProA tag described previously (Leggett et al. (2002) Mol. Cell 10:495). Cells were grown in YPD, harvested, resuspended in 50 mM Tris-HCl [pH 8], 1 mM EDTA and lysed by French press. Lysates was centrifuged at 15,000×g for 25 minutes, filtered and incubated with IgG resin (ICN) for 1 hr at 4° C. Resin was collected in a column, washed with 100 bed volumes of 50 mM Tris-HCl [pH 8], 50 mM NaCl, 1 mM EDTA buffer and equilibrated with TEV-protease buffer (50 mM Tris-HCl [pH 7.5], 1 mM EDTA, 1 mM DTT). […] The integrity of the 26S complexes and presence of Pre10-FPR1 and Rpn10-FPR1 tagged subunits was analyzed by Coomassie staining, SDS-PAGE and immunodetection. […]

## CC(C)C[C@H](NC(=O)[C@H](Cc1ccccc1)NC(=O)c1cnccn1)B(O)O [PS-341]
Tor-His3 reporter
  effect on degradation of Tor-His3 in the presence of rapamycin: prevented Tor-His3 from degrading; also recorded: halted degradation of Tor-His3
[1]
  effect on proteolysis of Tor-His3 in vitro: halted

Source: patent US7371539B2 (priority 2003, dated 2008)
